From PubChem BioAssay AID256 (DTP/NCI, 2004)
Several values for one entry are separate records, joined by “and”; a condition that tells them apart may be missing. Identical values can stand only once. Toxic doses and inconclusive results are not listed. The calls were made as follows: active = survival T/C of 150% or more; inactive = T/C below 125% in these data.

Tested on: CD2F1 mice, L1210 leukemia ip, survival T/C
Assay: NCI In Vivo Anticancer Drug Screen. Data for tumor model L1210 Leukemia (intraperitoneal) in CD2F1 (CDF1) mice
Settings: higher = longer survival
Outline: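 Antitumor effect is scored in animals hosting a serially transplanted tumor. Values compare compound-dosed animals against vehicle-only controls as a simple quotient.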

[1] = endpoint: mean survival time, dose: 100.0 mg/kg/injection, schedule: Q04DX003 (ip), vehicle: saline with Tween-80
[2] = endpoint: mean survival time, dose: 200.0 mg/kg/injection, schedule: Q04DX003 (ip), vehicle: saline with Tween-80
[3] = endpoint: mean survival time, dose: 400.0 mg/kg/injection, schedule: Q04DX003 (ip), vehicle: saline with Tween-80
[4] = endpoint: mean survival time, dose: 100.0 mg/kg/injection, schedule: Q01DX009 (ip), vehicle: saline with Tween-80
[5] = endpoint: mean survival time, dose: 200.0 mg/kg/injection, schedule: Q01DX009 (ip), vehicle: saline with Tween-80
[6] = endpoint: mean survival time, dose: 400.0 mg/kg/injection, schedule: Q01DX009 (ip), vehicle: saline with Tween-80
[7] = endpoint: mean survival time, dose: 50.0 mg/kg/injection, schedule: Q01DX009 (ip), vehicle: saline with Tween-80
[8] = endpoint: mean survival time, dose: 12.5 mg/kg/injection, schedule: Q01DX009 (ip), vehicle: saline with Tween-80
[9] = endpoint: mean survival time, dose: 25.0 mg/kg/injection, schedule: Q01DX009 (ip), vehicle: saline with Tween-80
[10] = endpoint: mean survival time, dose: 100.0 mg/kg/injection, schedule: Q01DX001 (ip), vehicle: saline
[11] = endpoint: mean survival time, dose: 100.0 mg/kg/injection, schedule: Q04DX003 (ip), vehicle: saline
[12] = endpoint: mean survival time, dose: 200.0 mg/kg/injection, schedule: Q01DX001 (ip), vehicle: saline
[13] = endpoint: mean survival time, dose: 200.0 mg/kg/injection, schedule: Q04DX003 (ip), vehicle: saline

Measured: T/C

COCC(OC)C(OC)C(OC)C(C=O)OC (stereo unspecified)
inactive: endpoint: mean survival time, dose: 50.0 mg/kg/injection, schedule: Q01DX001 (ip), vehicle: Klucel (hydroxypropylcellulose) (HPC) 99 % of control | endpoint: mean survival time, dose: 100.0 mg/kg/injection, schedule: Q01DX001 (ip), vehicle: Klucel (hydroxypropylcellulose) (HPC) 99 % of control | endpoint: mean survival time, dose: 200.0 mg/kg/injection, schedule: Q01DX001 (ip), vehicle: Klucel (hydroxypropylcellulose) (HPC) 105 % of control

CCCCCC(O)CCCCC
inactive: [1] 98 % of control | [2] 94 % of control | [3] 98 % of control

CNC1=C(C)C(=O)C2=C(C1=O)C(COC(N)=O)C1(O)C3C(CN21)N3C (stereo unspecified)
inactive: endpoint: mean survival time, dose: 1.5 mg/kg/injection, schedule: Q01DX001 (ip), vehicle: water 98 % of control | endpoint: mean survival time, dose: 3.0 mg/kg/injection, schedule: Q01DX001 (ip), vehicle: water 100 % of control | endpoint: mean survival time, dose: 6.0 mg/kg/injection, schedule: Q01DX001 (ip), vehicle: water 100 % of control | endpoint: mean survival time, dose: 12.0 mg/kg/injection, schedule: Q01DX001 (ip), vehicle: water 100 % of control | endpoint: mean survival time, dose: 24.0 mg/kg/injection, schedule: Q01DX001 (ip), vehicle: water 98 % of control | endpoint: mean survival time, dose: 48.0 mg/kg/injection, schedule: Q01DX001 (ip), vehicle: water 115 % of control | endpoint: mean survival time, dose: 96.0 mg/kg/injection, schedule: Q01DX001 (ip), vehicle: water 108 % of control

O=C1c2ccccc2C2c3ccccc3CCN12 (stereo unspecified)
inactive: [4] 103 % of control | [1] 104 % of control | [5] 97 % of control | [2] 102 % of control | [6] 97 % of control | [3] 102 % of control

NC1=CC(=O)c2ccccc2C1=O
inactive: [7] 96 % of control | [4] 100 % of control

COc1c(O)ccc2c1CCCCC2=O
inactive: [7] 100 % of control | [4] 100 % of control | [5] 100 % of control

COC1CCC2=C(C1)C(=O)CC1c3ccccc3CCN21 (stereo unspecified) (tested in a mixture with another compound)
inactive: endpoint: mean survival time, dose: 6.25 mg/kg/injection, schedule: Q01DX009 (ip), vehicle: saline with Tween-80 96 % of control | [8] 98 % of control | [9] 96 % of control

c1cc2c3c(c1)CCC3CCC2 (stereo unspecified)
inactive: [4] 96 % of control | [5] 101 % of control | [6] 90 % of control

CCCCCCCCCCC(=O)CCCCC
inactive: endpoint: mean survival time, dose: 100.0 mg/kg/injection, schedule: Q01DX009 (ip), vehicle: other 101 % of control | endpoint: mean survival time, dose: 100.0 mg/kg/injection, schedule: Q04DX003 (ip), vehicle: other 105 % of control | endpoint: mean survival time, dose: 200.0 mg/kg/injection, schedule: Q01DX009 (ip), vehicle: other 107 % of control | endpoint: mean survival time, dose: 200.0 mg/kg/injection, schedule: Q04DX003 (ip), vehicle: other 100 % of control | endpoint: mean survival time, dose: 400.0 mg/kg/injection, schedule: Q01DX009 (ip), vehicle: other 104 % of control | endpoint: mean survival time, dose: 400.0 mg/kg/injection, schedule: Q04DX003 (ip), vehicle: other 94 % of control

Cn1c(CC#N)c(C[N+](C)(C)C)c2ccccc21
inactive: endpoint: mean survival time, dose: 2.5 mg/kg/injection, schedule: Q01DX009 (ip), vehicle: saline with Tween-80 97 % of control | endpoint: mean survival time, dose: 5.0 mg/kg/injection, schedule: Q01DX001 (ip), vehicle: saline with Tween-80 102 % of control | endpoint: mean survival time, dose: 5.0 mg/kg/injection, schedule: Q01DX009 (ip), vehicle: saline with Tween-80 97 % of control | endpoint: mean survival time, dose: 10.0 mg/kg/injection, schedule: Q01DX001 (ip), vehicle: saline with Tween-80 96 % of control

NC(=O)CCC(NC(=O)c1cnc2ccccc2n1)C(=O)O (stereo unspecified)
inactive: [10] 97 % of control | [11] 105 % of control | [12] 97 % of control | [13] 100 % of control | endpoint: mean survival time, dose: 400.0 mg/kg/injection, schedule: Q01DX001 (ip), vehicle: saline 95 % of control | endpoint: mean survival time, dose: 400.0 mg/kg/injection, schedule: Q04DX003 (ip), vehicle: saline 102 % of control

CC1(C)C=CS1(=O)=O
inactive: endpoint: mean survival time, dose: 50.0 mg/kg/injection, schedule: Q04DX003 (ip), vehicle: saline 98 % of control | [10] 103 % of control | [11] 96 % of control | [12] 102 % of control | [13] 101 % of control

CCCCC=C(C1CCCC1C)C1CCCC1C (stereo unspecified)
inactive: endpoint: mean survival time, dose: 100.0 mg/kg/injection, schedule: Q01DX001 (ip), vehicle: saline with Tween-80 97 % of control | endpoint: mean survival time, dose: 200.0 mg/kg/injection, schedule: Q01DX001 (ip), vehicle: saline with Tween-80 102 % of control | endpoint: mean survival time, dose: 400.0 mg/kg/injection, schedule: Q01DX001 (ip), vehicle: saline with Tween-80 94 % of control

NC(=O)c1ncn(C2OC(CO)C(O)C2O)c1C(N)=O (stereo unspecified)
inactive: endpoint: mean survival time, dose: 12.5 mg/kg/injection, schedule: Q01DX005 (ip), vehicle: water 102 % of control | endpoint: mean survival time, dose: 25.0 mg/kg/injection, schedule: Q01DX005 (ip), vehicle: water 112 % of control | endpoint: mean survival time, dose: 50.0 mg/kg/injection, schedule: Q01DX005 (ip), vehicle: water 107 % of control | endpoint: mean survival time, dose: 100.0 mg/kg/injection, schedule: Q01DX005 (ip), vehicle: water 104 % of control | endpoint: mean survival time, dose: 200.0 mg/kg/injection, schedule: Q01DX005 (ip), vehicle: water 112 % of control

CCCCCCCC(=O)O[C@H]1[C@H]2[C@@H](CC1(C)C)C(=O)[C@]13O[C@H]1C(=O)[C@]1(CO1)[C@]23C
inactive: endpoint: median survival time, dose: 1.25 mg/kg/injection, schedule: Q01DX009 (ip), vehicle: saline with Tween-80 101 % of control | endpoint: median survival time, dose: 2.5 mg/kg/injection, schedule: Q01DX009 (ip), vehicle: saline with Tween-80 104 % of control | endpoint: median survival time, dose: 5.0 mg/kg/injection, schedule: Q01DX009 (ip), vehicle: saline with Tween-80 104 % of control | endpoint: median survival time, dose: 10.0 mg/kg/injection, schedule: Q01DX009 (ip), vehicle: saline with Tween-80 107 % of control | endpoint: median survival time, dose: 20.0 mg/kg/injection, schedule: Q01DX009 (ip), vehicle: saline with Tween-80 107 % of control

CC(COP(N)(=O)N(CCCl)CCCl)C(C)OCc1ccccc1 (stereo unspecified)
inactive: endpoint: mean survival time, dose: 15.62 mg/kg/injection, schedule: Q01DX001 (ip), vehicle: DMSO 101 % of control | endpoint: mean survival time, dose: 31.3 mg/kg/injection, schedule: Q01DX001 (ip), vehicle: DMSO 106 % of control | endpoint: mean survival time, dose: 62.5 mg/kg/injection, schedule: Q01DX001 (ip), vehicle: DMSO 101 % of control | endpoint: mean survival time, dose: 125.0 mg/kg/injection, schedule: Q01DX001 (ip), vehicle: DMSO 103 % of control | endpoint: mean survival time, dose: 250.0 mg/kg/injection, schedule: Q01DX001 (ip), vehicle: DMSO 95 % of control | endpoint: mean survival time, dose: 500.0 mg/kg/injection, schedule: Q01DX001 (ip), vehicle: DMSO 93 % of control

CC[CH2][Sn]([CH2]CC)([CH2]CC)[O][Sn]([CH2]CC)([CH2]CC)[CH2]CC
inactive: endpoint: mean survival time, dose: 125.0 micrograms/kg/injection, schedule: Q01DX009 (ip), vehicle: saline 95 % of control | endpoint: mean survival time, dose: 250.0 micrograms/kg/injection, schedule: Q01DX009 (ip), vehicle: saline 95 % of control | endpoint: mean survival time, dose: 500.0 micrograms/kg/injection, schedule: Q01DX009 (ip), vehicle: saline 106 % of control | endpoint: mean survival time, dose: 1000.0 micrograms/kg/injection, schedule: Q01DX009 (ip), vehicle: saline 93 % of control

CCOC(=O)C1(c2ccccc2)C(=O)Oc2ccccc21 (stereo unspecified)
inactive: [8] 98 % of control | [9] 94 % of control and 96 % of control | [7] 89 % of control and 104 % of control | [4] 89 % of control and 93 % of control | [5] 89 % of control | [6] 87 % of control and 91 % of control

COc1ccc(C(Sc2ccccc2)c2ccc(OC)cc2)cc1
inactive: [4] 95 % of control | [1] 95 % of control | [5] 90 % of control | [2] 95 % of control | [6] 86 % of control | [3] 96 % of control
